Experimental data: patent publication US20160108049A1 (TAKEDA Gmbh, priority 2011, published 2016)

Experiments:
human PDE5 = biological target: T1, human PDE5 (Homo sapiens, UniProt O76074); test: Inhibition of PDE5 activity (platelet lysate, SPA assay); type: biochemical; details: 0.5 μM cGMP, read-out: PDE5 Inhibitory values measured as -logIC50 (converted)
T1 construct: from tissue; host or cells: human platelets from fresh donor blood (platelet lysate)
In short: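 Human platelet lysate (10,000 g supernatant) served as PDE5 source, with 1 μM motapizone and 10 nM PDE2 inhibitor added, in Tris pH 7.4, 5 mM Mg2+, BSA. Substrate 0.5 μM [3H]cGMP, 10–20% conversion; 5 min preincubation then 15 min at 37 °C, stopped by SPA beads with IBMX. IC50 by non-linear regression.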

PDE4B1 = biological target: T2, PDE4B1 (Homo sapiens, UniProt Q07343); test: Inhibition of PDE4 activity (PDE4B1, SPA assay); type: biochemical; details: recombinant PDE4B1, 0.5 μM cAMP; read-out: PDE4B1 Inhibitory values measured as -logIC50 (converted)
T2 construct: made in house; host or cells: SF21 insect cells (baculovirus; virus made in SF9 cells, pCR-Bac vector)
In short: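 Baculovirus-expressed enzyme from SF21 cell 1000×g supernatant; substrate 0.5 μM [3H]cAMP in 20 mM Tris pH 7.4, 5 mM Mg2+, 0.1 mg/ml BSA, 10-20% conversion. 5 min preincubation at 37 °C, 15 min reaction, stopped by SPA beads with IBMX; IC50 by non-linear regression.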

T2 sequence (Q07343 whole entry): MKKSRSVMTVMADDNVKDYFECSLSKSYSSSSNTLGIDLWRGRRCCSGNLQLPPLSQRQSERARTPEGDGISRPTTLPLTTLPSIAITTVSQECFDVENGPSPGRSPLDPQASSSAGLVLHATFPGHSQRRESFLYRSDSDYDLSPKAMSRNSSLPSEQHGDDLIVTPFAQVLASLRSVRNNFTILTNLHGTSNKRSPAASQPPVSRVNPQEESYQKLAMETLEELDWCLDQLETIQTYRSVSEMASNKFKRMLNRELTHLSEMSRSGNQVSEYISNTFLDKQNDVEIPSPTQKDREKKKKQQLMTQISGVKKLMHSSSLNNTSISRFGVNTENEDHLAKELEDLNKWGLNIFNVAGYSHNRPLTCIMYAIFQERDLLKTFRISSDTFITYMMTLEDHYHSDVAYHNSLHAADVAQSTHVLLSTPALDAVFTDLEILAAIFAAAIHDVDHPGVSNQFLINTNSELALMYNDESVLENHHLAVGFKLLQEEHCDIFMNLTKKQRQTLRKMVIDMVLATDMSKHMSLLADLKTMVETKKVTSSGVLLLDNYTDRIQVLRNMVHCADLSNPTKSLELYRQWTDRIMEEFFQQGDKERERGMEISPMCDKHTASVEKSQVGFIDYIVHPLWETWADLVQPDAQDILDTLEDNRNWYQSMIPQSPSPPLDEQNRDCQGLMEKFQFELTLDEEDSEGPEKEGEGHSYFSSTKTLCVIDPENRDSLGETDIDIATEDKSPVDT

Row | Compound | IC50 (human PDE5) | IC50 (PDE4B1)
1 | COc1cc(OCC2CC2)c(-c2ncnc3c(C(=O)N[C@H](Cc4ccccc4)C(=O)N4CCC(N5N=C(c6ccc(OC)c(OC)c6)[C@H]6CCCC[C@H]6C5=O)CC4)c(C)[nH]c23)cc1F [Example 22, 4-[2-(cyclopropylmethoxy)-5-fluoro-4-methoxyphenyl]-N-[(2R)-1-{4-[(4aS,8aR)-4-(3,4-dimethoxyphenyl)-1-oxo-4a,5,6,7,8,8a-hexahydrophthalazin-2(1H)-yl]piperidin-1-yl}-1-oxo-3-phenylpropan-2-yl]-6-methyl-5H-pyrrolo[3,2-d]pyrimidine-7-carboxamide] | 1 to 10 nM | 1 to 10 nM
2 | CCOc1ccc(C[C@@H](NC(=O)c2c(C)[nH]c3c(-c4cc(F)c(OC)cc4OCC4CC4)ncnc23)C(=O)N2CCC(N3N=C(c4ccc(OC)c(OC)c4)[C@H]4CCCC[C@H]4C3=O)CC2)cc1 [Example 8, 4-[2-(cyclopropylmethoxy)-5-fluoro-4-methoxyphenyl]-N-[(2R)-1-{4-[(4aS,8aR)-4-(3,4-dimethoxyphenyl)-1-oxo-4a,5,6,7,8,8a-hexahydrophthalazin-2(1H)-yl]piperidin-1-yl}-3-(4-ethoxyphenyl)-1-oxopropan-2-yl]-6-methyl-5H-pyrrolo[3,2-d]pyrimidine-7-carboxamide] | < 1 nM | 1 to 10 nM
3 | COc1ccc(C2=NN(C3CCN(C(=O)[C@@H](Cc4cscn4)NC(=O)c4c[nH]c5c(-c6c(OCC7CC7)ccc7c6OCO7)ncnc45)CC3)C(=O)[C@@H]3CCCC[C@H]23)cc1OC [Example 85, 4-[5-(cyclopropylmethoxy)-1,3-benzodioxol-4-yl]-N-[(2R)-1-{4-[(4aS,8aR)-4-(3,4-dimethoxyphenyl)-1-oxo-4a,5,6,7,8,8a-hexahydrophthalazin-2(1H)-yl]piperidin-1-yl}-1-oxo-3-(1,3-thiazol-4-yl)propan-2-yl]-5H-pyrrolo[3,2-d]pyrimidine-7-carboxamide] | < 1 nM | < 1 nM
4 | COc1ccc(C2=NN(C3CCN(C(=O)[C@H](CCC(=O)NC(C)C)NC(=O)c4c[nH]c5c(-c6c(OCC7CC7)ccc7c6OCO7)ncnc45)CC3)C(=O)[C@@H]3CCCC[C@H]23)cc1OC [Example 106, 4-[5-(cyclopropylmethoxy)-1,3-benzodioxol-4-yl]-N-[(2S)-1-{4-[(4aS,8aR)-4-(3,4-dimethoxyphenyl)-1-oxo-4a,5,6,7,8,8a-hexahydrophthalazin-2(1H)-yl]piperidin-1-yl}-1,5-dioxo-5-(propan-2-ylamino)pentan-2-yl]-5H-pyrrolo[3,2-d]pyrimidine-7-carboxamide] | 1 to 10 nM | 1 to 10 nM

Results, then the molecule that gave them:

Row | IC50 (human PDE5) | IC50 (PDE4B1) | Compound
5 | < 1 nM | 1 to 10 nM | COc1ccc(C2=NN(C3CCN(C(=O)[C@@H](Cc4ccc(C)cc4)NC(=O)c4c[nH]c5c(-c6c(OCC7CC7)ccc7c6OCO7)ncnc45)CC3)C(=O)[C@@H]3CCCC[C@H]23)cc1OC [Example 21, 4-[5-(cyclopropylmethoxy)-1,3-benzodioxol-4-yl]-N-[(2R)-1-{4-[(4aS,8aR)-4-(3,4-dimethoxyphenyl)-1-oxo-4a,5,6,7,8,8a-hexahydrophthalazin-2(1H)-yl]piperidin-1-yl}-3-(4-methylphenyl)-1-oxopropan-2-yl]-5H-pyrrolo[3,2-d]pyrimidine-7-carboxamide]
6 | 1 to 10 nM | < 1 nM | COc1ccc(C2=NN(C3CCN(C(=O)[C@H](NC(=O)c4c[nH]c5c(-c6c(OCC7CC7)ccc7c6OCO7)ncnc45)C4CCCCC4)CC3)C(=O)[C@@H]3CCCC[C@H]23)cc1OC [Example 72, N-[(1R)-1-cyclohexyl-2-{4-[(4aS,8aR)-4-(3,4-dimethoxyphenyl)-1-oxo-4a,5,6,7,8,8a-hexahydrophthalazin-2(1H)-yl]piperidin-1-yl}-2-oxoethyl]-4-[5-(cyclopropylmethoxy)-1,3-benzodioxol-4-yl]-5H-pyrrolo[3,2-d]pyrimidine-7-carboxamide]
7 | 1 to 10 nM | < 1 nM | COc1ccc(C2=NN(C3CCN(C(=O)[C@@H](C)NC(=O)c4c[nH]c5c(-c6c(OCC7CC7)ccc7c6OCO7)ncnc45)CC3)C(=O)[C@@H]3CCCC[C@H]23)cc1OC [Example 62, 4-[5-(cyclopropylmethoxy)-1,3-benzodioxol-4-yl]-N-[(2R)-1-{4-[(4aS,8aR)-4-(3,4-dimethoxyphenyl)-1-oxo-4a,5,6,7,8,8a-hexahydrophthalazin-2(1H)-yl]piperidin-1-yl}-1-oxopropan-2-yl]-5H-pyrrolo[3,2-d]pyrimidine-7-carboxamide]
